Experimental data published in US11479556B1, “Bifunctional compounds for degrading BTK via ubiquitin proteosome pathway” (NURIX THERAPEUTICS, INC., priority 2018, dated 2022).

These molecules were tested against T1, BTK (Homo sapiens, UniProt Q06187) (assay: Cellular BTK HTRF assay (BTK degradation) in TMD8 cells). Details: four hours incubation, Total-BTK HTRF relative to DMSO-treated cells.
T1 construct: endogenous in cells; host or cells: TMD8 cells
Format: cell-based
Experimental: Example 66: BTK Degradation Assay
TMD8 cells were obtained from Tokyo Medical and Dental University and were grown in alpha-MEM (Fisher 12571063) supplemented with 10% heat-inactivated FBS (Corning Premium Fetal Bovine Serum from Fisher, MT35015CV).
Compounds of the present invention were added to 50,000 TMD8 cells in round-bottom 96 well plates with a final DMSO concentration of […] and were incubated at 37° C. 5% CO2 for four hours. BTK levels were determined using Cisbio Total-BTK HTRF ([…] Time-Resolved Fluorescence) kit (63ADK064PEG) according to manufacturer's protocol. Briefly, cells were incubated in 1× supplied lysis buffer for 30 minutes. In an opaque white low volume 96 well plate (Cisbio, 66PL96005), cell lysate was combined with two different specific BTK antibodies, one conjugated with Eu^3+-Cryptate FRET donor and one conjugated with d2 FRET acceptor. Assay controls include wells containing cell lysate with only the Eu^3+-Cryptate FRET donor antibody and wells containing both HTRF antibodies and lysis buffer without cells or control lysate provided by Cisbio. HTRF ratio was calculated as (acceptor signal at 665 nm/donor signal at 620 nm)×10^4. Background HTRF levels were determined from the control well containing the donor, but no acceptor, antibody. Background HTRF levels were subtracted from all samples. Readouts were reported as HTRF levels relative to HTRF levels of DMSO-treated cells. Four-parameter non-linear regressions were performed in GraphPad Prism 7.02 to obtain DC50 values. DC50 values are provided in Table 3, wherein A<5.0 nM, 5.0 nM≤B≤15 nM, and 15 nM<C.

T1 sequence (Q06187 whole entry): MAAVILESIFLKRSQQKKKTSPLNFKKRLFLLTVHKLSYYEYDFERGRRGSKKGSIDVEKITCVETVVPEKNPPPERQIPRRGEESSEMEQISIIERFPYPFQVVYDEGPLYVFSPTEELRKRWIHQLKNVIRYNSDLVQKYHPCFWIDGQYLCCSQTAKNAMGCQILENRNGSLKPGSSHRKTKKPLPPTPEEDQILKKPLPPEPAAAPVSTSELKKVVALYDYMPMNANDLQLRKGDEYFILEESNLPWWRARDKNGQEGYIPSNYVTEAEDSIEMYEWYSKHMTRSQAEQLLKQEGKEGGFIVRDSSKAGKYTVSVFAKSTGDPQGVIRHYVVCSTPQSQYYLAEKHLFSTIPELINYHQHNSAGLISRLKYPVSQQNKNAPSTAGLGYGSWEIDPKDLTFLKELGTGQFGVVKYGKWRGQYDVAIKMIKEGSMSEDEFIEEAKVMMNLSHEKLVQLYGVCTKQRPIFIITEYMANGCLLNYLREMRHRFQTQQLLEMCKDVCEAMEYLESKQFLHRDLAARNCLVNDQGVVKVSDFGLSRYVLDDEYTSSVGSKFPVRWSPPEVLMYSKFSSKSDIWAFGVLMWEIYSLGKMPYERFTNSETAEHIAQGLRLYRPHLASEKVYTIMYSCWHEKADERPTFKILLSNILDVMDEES

DC50 [nM] | Compound
< 5 | CN1CCN([C@@H]2CCCN(c3cnc(C(N)=O)c(Nc4ccc(N5CCN(CC6CCN(c7ccc8c(c7)C(=O)N(C7CCC(=O)NC7=O)C8=O)CC6)CC5)cc4)n3)C2)C1=O (stereo partly shown) [Compound 49]
5 to 15 | CN1CCN([C@H]2CCCN(c3cnc(C(N)=O)c(Nc4ccc(C(=O)N5CCN(Cc6ccc7c(c6)C(=O)N(C6CCC(=O)NC6=O)C7=O)CC5)cc4)n3)C2)C1=O (stereo partly shown) [Compound 90]
> 15 | CN1CCN([C@@H]2CCCN(c3cnc(C(N)=O)c(Nc4ccc(N5CCCC6(C5)CN(c5cccc7c5C(=O)N(C5CCC(=O)NC5=O)C7=O)C6)cc4)n3)C2)C1=O (stereo partly shown) [Compound 96]
5 to 15 | CN1CCN([C@@H]2CCCN(c3cnc(C(N)=O)c(Nc4ccc(C5CCN(C(=O)CCCCc6cccc7c6CN(C6CCC(=O)NC6=O)C7=O)CC5)cc4)n3)C2)C1=O (stereo partly shown) [Compound 23]
< 5 | CN1CCN([C@@H]2CCCN(c3cnc(C(N)=O)c(Nc4ccc(C5CCN(CC6CN(c7ccc8c(=O)n(C9CCC(=O)NC9=O)ccc8c7)C6)CC5)cc4)n3)C2)C1=O (stereo partly shown) [Compound 138]
5 to 15 | CN(c1ccc(N2CCC(CN3CCC(c4ccc(Nc5nc(N6CCCCC6)cnc5C(N)=O)cc4)CC3)CC2)nc1)C1CCC(=O)NC1=O (stereo not shown) [Compound 181]
< 5 | Cn1c(=O)n(C2CCC(=O)NC2=O)c2ccc(N3CCC(CN4CCC(c5ccc(Nc6nc(N7CCCCC7)cnc6C(N)=O)cc5)CC4)CC3)cc21 (stereo not shown) [Compound 179]
5 to 15 | CN1CCN([C@H]2CCCN(c3cnc(C(N)=O)c(Nc4ccc(N5CCCC6(C5)CN(c5ccc7c(c5)C(=O)N(C5CCC(=O)NC5=O)C7=O)C6)cc4)n3)C2)C1=O (stereo partly shown) [Compound 111]
5 to 15 | CN1CCN([C@H]2CCCN(c3cnc(C(N)=O)c(Nc4ccc(N5CC[C@H]6CCN(c7ccc8c(c7)C(=O)N(N7CCC(=O)NC7=O)C8=O)C[C@H]6C5)cc4)n3)C2)C1=O [Compound 106]
< 5 | CN1CCN([C@@H]2CCCN(c3cnc(C(N)=O)c(Nc4ccc(C5CCN(C6CN(Cc7ccc8c(c7)CN(C7CCC(=O)NC7=O)C8=O)C6)CC5)cc4)n3)C2)C1=O (stereo partly shown) [Compound 86]
5 to 15 | CN1CCN([C@@H]2CCCN(c3cnc(C(N)=O)c(Nc4ccc(N5CCN(C(=O)CCOCCNc6cccc7c6C(=O)N(C6CCC(=O)NC6=O)C7=O)CC5)cc4)n3)C2)C1=O (stereo partly shown) [Compound 19]
< 5 | NC(=O)c1ncc(N2CCC[C@@H](CO)C2)nc1Nc1ccc(C2CCN(CC3CCN(c4ccc(C(=O)NC5CCC(=O)NC5=O)nc4)CC3)CC2)cc1 (stereo partly shown) [Compound 173]
5 to 15 | CN1CCN([C@@H]2CCCN(c3cnc(C(N)=O)c(Nc4ccc(C5CN(CCCCc6cccc7c6CN(C6CCC(=O)NC6=O)C7=O)C5)cc4)n3)C2)C1=O (stereo partly shown) [Compound 36]
< 5 | CN1CCN([C@@H]2CCCN(c3cnc(C(N)=O)c(Nc4ccc(N5CCN(C6CN(Cc7ccc8c(c7)C(=O)N(C7CCC(=O)NC7=O)C8=O)C6)CC5)cc4)n3)C2)C1=O (stereo partly shown) [Compound 101]
> 15 | CN1CCN([C@@H]2CCCN(c3cnc(C(N)=O)c(Nc4ccc(CCCNc5ccc6c(c5)C(=O)N(C5CCC(=O)NC5=O)C6=O)cc4)n3)C2)C1=O (stereo partly shown) [Compound 65]
> 15 | CNC(C)C(=O)N[C@H](C(=O)N1C[C@@H](NC(=O)CCOCCOCCOCCOCCC(=O)N2CCC(c3ccc(Nc4nc(N5CCC[C@@H](N6CCN(C)C6=O)C5)cnc4C(N)=O)cc3)CC2)C[C@H]1C(=O)N[C@@H]1CCCc2ccccc21)C1CCCCC1 (stereo partly shown) [Compound 183]
> 15 | NC(=O)c1ncc(N2CCCCC2)nc1Nc1ccc(N2CCC3(CC2)CCN(c2ccc4c(c2)C(=O)N(C2CCC(=O)NC2=O)C4=O)CC3)cc1 (stereo not shown) [Compound 124]
5 to 15 | CN1CCN([C@@H]2CCCN(c3cnc(C(N)=O)c(Nc4ccc(N5CC[C@@H]6CCN(Cc7ccc8c(c7)C(=O)N(N7CCC(=O)NC7=O)C8=O)C[C@@H]6C5)cc4)n3)C2)C1=O [Compound 95]
< 5 | CN1CCN([C@@H]2CCCN(c3cnc(C(N)=O)c(Nc4ccc(N5CCN(CCCc6cccc7c6CN(C6CCC(=O)NC6=O)C7=O)CC5)cc4)n3)C2)C1=O (stereo partly shown) [Compound 15]
